Measured values reported in patent US20240059655A1, “HETEROCYCLIC G-PROTEIN-COUPLED RECEPTOR 52 (GPR52) AGONISTS” (Board of Regents, The University of Texas System, priority 2020, published 2024).
pKi: −log10 of the molar value. “Also recorded” adds a separate entry of the source.

Assays:
[1] = biological target: human GPR52 (Homo sapiens (Human), UniProt Q9Y2T5); assay: Glosensor cAMP assay in HEK293 cells transiently expressing human GPR52; type: cell-based; settings: relative to compound 4 as 100% and 0.5% DMSO as 0%, mean ± SEM, "—" not detected
Chain of human GPR52 (Q9Y2T5 whole entry): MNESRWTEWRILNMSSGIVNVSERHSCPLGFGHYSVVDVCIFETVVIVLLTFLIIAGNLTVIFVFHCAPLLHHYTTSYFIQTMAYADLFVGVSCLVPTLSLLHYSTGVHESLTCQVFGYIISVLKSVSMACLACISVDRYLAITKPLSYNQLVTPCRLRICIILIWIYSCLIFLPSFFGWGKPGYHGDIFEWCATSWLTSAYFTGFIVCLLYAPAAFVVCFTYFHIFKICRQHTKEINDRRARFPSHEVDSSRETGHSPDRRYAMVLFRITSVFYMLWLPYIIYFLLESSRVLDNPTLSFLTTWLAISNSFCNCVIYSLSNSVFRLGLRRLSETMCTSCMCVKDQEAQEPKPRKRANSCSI

[2] = In vivo PK in rats; settings: rat; for AUC(0-inf): mean ± SEM
Protocol: In Vivo PK and Brain Permeability Studies. […] 100 μL of blood (yielding ˜50 μL of plasma) samples are taken from the animal's jugular vein and placed into micro K2EDTA tubes. Blood samples were placed on ice and centrifuged at 8000 rpm for 5 min at 4° C. to generate plasma sample within 0.5 h of collection. Brain samples were collected at 0.25 and 1 h post-dosing. All samples were stored at −20° C. […] The Sundia animal facility is approved with yearly inspection by the Shanghai Laboratory Animal Management Committee. All treatment assignments were blinded to investigators who performed PK assays and end point statistical analyses. […] The peak concentration (Cmax) was directly obtained by visual inspection of the plasma concentration-time profile. The elimination rate constant (λ) was obtained by the least-squares fitted terminal log-linear portion of the slope of the plasma concentration-time profile. […] The area under the plasma concentration-time curve from 0 to time t (AUC0-t) was evaluated using the linear trapezoidal rule and further extrapolated to infinity (AUC0-∞) according to the following equation: AUC0-∞=AUC0-t+Clast/λ. The pharmacokinetic parameters were presented as mean±SEM.

[3] = Brain permeability in rats; type: in vivo; settings: male, Sprague-Dawley, brain/plasma, rat, IV 10 mg/kg, read-out: Brain/Plasma Ratio
Protocol: In Vivo PK and Brain Permeability Studies. Male Sprague-Dawley rats (n=3 per treatment group; […] Rats were randomly assigned to treatment groups. […] The rat was restrained manually at the designated time points (0.08, 0.25, 0.5, 1.0, 2.0, 4.0, 8.0, and 24 h post-dosing for IV; 0.25, 0.5, 1.0, 2.0, 4.0, 8.0, and 24 h post-dosing for PO). 100 μL of blood (yielding ˜50 μL of plasma) samples are taken from the animal's jugular vein and placed into micro K2EDTA tubes. Blood samples were placed on ice and centrifuged at 8000 rpm for 5 min at 4° C. to generate plasma sample within 0.5 h of collection. Brain samples were collected at 0.25 and 1 h post-dosing. All samples were stored at −20° C. The concentration of 12c in each sample was analyzed by Sundia MediTech Co., Ltd. The study and the related standard operating procedures were reviewed and approved by the Sundia Institutional Animal Care and Use Committee. The Sundia animal facility is approved with yearly inspection by the Shanghai Laboratory Animal Management Committee. All treatment assignments were blinded to investigators who performed PK assays and end point statistical analyses.

[4] = biological target: 5-HT2C (Homo sapiens (Human), UniProt P28335); assay: NIMH-PDSP broad-panel counter screening (binding)
Chain of 5-HT2C (P28335 33-458, species assumed): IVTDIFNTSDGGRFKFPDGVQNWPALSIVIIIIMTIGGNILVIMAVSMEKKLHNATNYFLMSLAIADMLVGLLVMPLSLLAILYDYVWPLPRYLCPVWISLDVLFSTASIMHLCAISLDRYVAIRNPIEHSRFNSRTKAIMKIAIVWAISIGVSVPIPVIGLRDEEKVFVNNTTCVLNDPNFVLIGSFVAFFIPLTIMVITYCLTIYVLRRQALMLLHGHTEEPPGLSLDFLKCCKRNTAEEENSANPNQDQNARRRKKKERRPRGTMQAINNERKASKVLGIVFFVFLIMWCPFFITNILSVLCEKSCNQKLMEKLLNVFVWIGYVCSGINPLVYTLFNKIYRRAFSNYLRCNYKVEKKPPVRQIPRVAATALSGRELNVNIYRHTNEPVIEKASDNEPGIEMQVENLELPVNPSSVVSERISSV

[5] = test system: GABAA; assay: NIMH-PDSP broad-panel counter screening (binding); settings: mean percent inhibition of binding
[6] = biological target: hERG potassium channel (Homo sapiens (Human), UniProt Q12809); assay: NIMH-PDSP broad-panel counter screening (binding)
Chain of hERG potassium channel (Q12809 whole entry): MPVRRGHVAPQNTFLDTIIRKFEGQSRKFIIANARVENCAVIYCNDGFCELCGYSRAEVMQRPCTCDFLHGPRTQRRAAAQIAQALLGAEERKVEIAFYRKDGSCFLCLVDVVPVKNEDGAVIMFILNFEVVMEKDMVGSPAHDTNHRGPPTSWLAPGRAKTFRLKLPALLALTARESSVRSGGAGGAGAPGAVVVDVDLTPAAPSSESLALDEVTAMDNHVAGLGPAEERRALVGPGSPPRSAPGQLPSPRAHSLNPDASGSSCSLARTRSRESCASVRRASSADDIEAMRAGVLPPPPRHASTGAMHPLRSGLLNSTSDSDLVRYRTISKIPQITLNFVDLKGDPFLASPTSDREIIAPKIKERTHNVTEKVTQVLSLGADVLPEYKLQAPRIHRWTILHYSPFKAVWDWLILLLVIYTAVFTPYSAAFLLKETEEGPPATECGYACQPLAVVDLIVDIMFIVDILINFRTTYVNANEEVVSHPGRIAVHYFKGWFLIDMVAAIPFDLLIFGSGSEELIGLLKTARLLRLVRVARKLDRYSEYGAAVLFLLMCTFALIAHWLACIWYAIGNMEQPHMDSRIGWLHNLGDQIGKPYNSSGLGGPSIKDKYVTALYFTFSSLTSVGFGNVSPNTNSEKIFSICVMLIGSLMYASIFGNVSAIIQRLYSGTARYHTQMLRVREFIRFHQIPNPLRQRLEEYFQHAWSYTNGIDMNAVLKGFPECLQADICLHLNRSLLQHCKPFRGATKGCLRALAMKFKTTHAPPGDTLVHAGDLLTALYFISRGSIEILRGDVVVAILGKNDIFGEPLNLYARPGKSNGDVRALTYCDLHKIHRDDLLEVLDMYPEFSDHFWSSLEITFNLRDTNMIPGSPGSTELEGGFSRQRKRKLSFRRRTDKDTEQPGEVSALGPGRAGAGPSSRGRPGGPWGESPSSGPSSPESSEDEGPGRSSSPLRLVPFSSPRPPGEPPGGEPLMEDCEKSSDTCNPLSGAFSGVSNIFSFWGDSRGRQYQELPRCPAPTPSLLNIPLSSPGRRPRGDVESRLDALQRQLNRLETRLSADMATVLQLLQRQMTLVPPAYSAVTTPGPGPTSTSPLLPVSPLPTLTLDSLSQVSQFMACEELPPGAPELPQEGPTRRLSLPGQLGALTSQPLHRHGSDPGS

[7] = test system: C57/BL6 mice; assay: Locomotor activity and amphetamine-induced hyperlocomotion in mice; settings: P<0.05 vs vehicle; for AMPH-induced horizontal activity, first 30 min after AMPH: AMPH 3 mg/kg IP
[8] = test system: HEK293 cells lacking GPR52; assay: cAMP Glosensor control in HEK293 cells lacking GPR52 (empty vector); settings: HEK293 cells with empty vector, 0.1 nM-10 μM
[9] = male, Sprague-Dawley, plasma, IV 10 mg/kg
[10] = male, Sprague-Dawley, plasma, PO 20 mg/kg

With `O=C(NCCO)c1cccc2c1CCN2c1cc(Cc2cc(F)cc(C(F)(F)F)c2)ncn1` [Compound 12c, 1-(6-(3-Fluoro-5-(trifluoromethyl)benzyl)pyrimidin-4-yl)-N-(2-hydroxyethyl)indoline-4-carboxamide] the Emax ([1]; HEK293, cAMP assay, read-out: Emax (%)) was 136%, the “Emax (%)” value ([1]; cAMP assay) was 134% and the Cmax [2, 9] was 6730 ng/mL. The clearance [2, 9] was 18.3 mL/min/kg, the AUC(0-inf) [2, 9] was 9030 ng·h/mL and the Vd ([2]; male, Sprague-Dawley, plasma, IV 10 mg/kg, read-out: Vss) was 1.5 L/kg. The Cmax [2, 10] was 3410 ng/mL, the AUC(0-inf) [2, 10] was 13700 ng·h/mL and the bioavailability ([2]; male, Sprague-Dawley, plasma, oral, 20 mg/kg) was 76%. The “CL” value ([2]; IV 10 mg/kg) was 18.3 ± 1.7 mL/min/kg, the “CL” value ([2]; PO 20 mg/kg) was 25 ± 5 mL/min/kg and the “Vss” value ([2]; PO 20 mg/kg) was 5.5 ± 1.16 L/kg. The “F (%)” value ([2]; absolute oral bioavailability, PO 20 mg/kg vs IV 10 mg/kg) was 76 ± 15%, the Kp at […] ([3]; 0.25 h) was 0.28 and the Kp at 1 h ([3]; 1 h) was 0.39. The pKi [4] was under 5.00, the “% inhibition (10 μM)” value [5] was 5.98% and the “hERG potassium channel binding activity” value ([6]; 10 μM) was “did not show any”. For the same molecule, the “% inhibition (10 μM)” value ([6]; hERG, mean percent inhibition of binding) was 11.04%, the “AMPH-induced horizontal activity, first 30 min after AMPH” value ([7]; 3 mg/kg IP) was “suppressed AMPH-induced horizontal activity” and the “horizontal activity/30 min after compound injection” value ([7]; 3 mg/kg IP) was “suppressed horizontal activity”. The “AMPH-induced horizontal activity, first 30 min after AMPH” value ([7]; 10 mg/kg IP) was “suppressed AMPH-induced horizontal activity”, the “horizontal activity/30 min after compound injection” value ([7]; 10 mg/kg IP) was “suppressed horizontal activity” and the “cAMP increase in cells lacking GPR52” value [8] was “no increase in cAMP; also recorded: did not increase cAMP”.
